Values quoted from earlier work, collected in patent publication US8486426B2, “Methods and compositions for treatment of dermal conditions” (Kimberly-Clark Worldwide, Inc., priority 2002, dated 2013).

Tests used:
[1] = for deaths among liver failure cases: reported by/through 2001
[2] = system: onychomycosis; details: for Clinical cure rate: total dystrophic onychomycosis (TDO), oral drug
[3] = system: dermatophytes, yeast and molds that typically cause onychomycosis
[4] = in vivo

CCC(C)n1ncn(-c2ccc(N3CCN(c4ccc(OCC5COC(Cn6cncn6)(c6ccc(Cl)cc6Cl)O5)cc4)CC3)cc2)c1=O (centres unmarked) [SPORANOX, itraconazol]
deaths among pulmonary edema cases ([1]; as of 2001): 13 deaths | cases of liver failure reported ([1]; in vivo): 24 cases | cases of pulmonary edema (probable association) ([1]; in vivo): 58 cases | deaths among liver failure cases [1]: 11 deaths

Cc1cc(C2CCCCC2)n(O)c(=O)c1 [PENLAC, ciclopirox olamine]
cure rate ([2]; mild to moderate DLSO, average 40% of nail involved, no matrix infection, topical): 7% | in vitro action on fungi [3]: fungicidal

OC(Cn1cncn1)(Cn1cncn1)c1ccc(F)cc1F [fluconazole]
Clinical cure rate [2]: about 38%

CCC(C)(C)c1ccc(CC(C)CN2C[C@@H](C)O[C@@H](C)C2)cc1 (some centres unmarked) [LOCERYL, amorolfine]
effective in share of the cases ([2]; mild onychomycosis with no matrix involvement, topical 5% solution): about 40%

CN(C/C=C/C#CC(C)(C)C)Cc1cccc2ccccc12 [TERBINAFINE, terbinafine]
persistence after treatment [4]: several months | time at which detectable in the nail bed [4]: one week | Clinical cure rate [2]: 37% | cases of liver failure reported ([1]; in vivo): 16 cases | liver transplants reported ([1]; in vivo): 2 liver transplants | deaths among liver failure cases [1]: 11 deaths
